Structures are written as SMILES.

Results on 24 molecules are retold here after patent US8916557B2, “Substituted 4-Aryl-N-phenyl-1,3,5-triazin-2-amines” (Bayer Intellectual Property GmbH, priority 2011, dated 2014).

In one assay the target is T1, CDK9/CycT1 (Homo sapiens, UniProt P50750).
T1 construct: Recombinant full-length His-tagged human CDK9 and CycT1; His; purchased Invitrogen PV4131; host or cells: insect cells
Nature of the assay: CDK9/CycT1 kinase assay (TR-FRET). The class given is biochemical. To be noted: Method 1, 10 μM ATP. An outline of the steps: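 Full-length His-tagged human CDK9/CycT1 (insect-cell expressed), 15 min compound pre-incubation, then 25 min at 22 °C with 10 µM ATP (final) and 1 µM biotinylated peptide (final) in Tris pH 8.0/MgCl2 buffer. Phospho-substrate detected by TR-FRET (anti-RB pSer807/pSer811, Eu anti-mouse IgG, streptavidin-XL665); 665/622 nm emission ratio as read-out.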
For orientation: In TR-FRET formats the signal depends on donor and acceptor labels being close together.

Assay [1] relates to Caco-2 human colorectal carcinoma. Kind of assay: Proliferation assay (crystal violet), Caco-2. To be noted: CACO-2 cells, read-out: Inhibition of CACO-2 cell proliferation. The class given is cell-based.
Procedure: Cultivated tumour cells (NCI-H460, human non-small cell lung carcinoma cells, ATCC HTB-177; DU 145, hormone-independent human prostate carcinoma cells, ATCC HTB-81; HeLa-MaTu, human cervical carcinoma cells, EPO-GmbH, Berlin; HeLa-MaTu-ADR, multidrug-resistant human cervical carcinoma cells, EPO-GmbH, Berlin; HeLa human cervical tumour cells, ATCC CCL-2; Caco-2 human colorectal carcinoma, ATCC HTB-37; B16F10 mouse melanoma cells, ATCC CRL-6475) were plated at a density of 5000 cells/well (DU145, HeLa-MaTu-ADR), 3000 cells/well (NCI-H460, HeLa-MaTu, HeLa), 1500 cells/well (Caco-2), or 1000 cells/well (B16F10) in a 96-well multititer plate in 200 μL of their respective growth medium supplemented 10% fetal calf serum. After 24 hours, the cells of one plate (zero-point plate) were stained with crystal violet (see below), while the medium of the other plates was replaced by fresh culture medium (200 μl), to which the test substances were added in various concentrations (0 μM, as well as in the range of 0.001-10 μM; the final concentration of the solvent dimethyl sulfoxide was 0.5%). The cells were incubated for 4 days in the presence of test substances. Cell proliferation was determined by staining the cells with crystal violet: the cells were fixed by adding 20 μl/measuring point of an 11% glutaric aldehyde solution for 15 minutes at room temperature. After three washing cycles of the fixed cells with water, the plates were dried at room temperature. The cells were stained by adding 100 μl/measuring point of a 0.1% crystal violet solution (pH 3.0). After three washing cycles of the stained cells with water, the plates were dried at room temperature. The dye was dissolved by adding 100 μl/measuring point of a 10% acetic acid solution. The extinction was determined by photometry at a wavelength of 595 nm. The change of cell number, in percent, was calculated by normalization of the measured values to the extinction values of the zero-point plate (=0%) and the extinction of the untreated (0 μm) cells (=100%). The IC50 values were determined by means of a 4 parameter fit.

T1 sequence (P50750 whole entry): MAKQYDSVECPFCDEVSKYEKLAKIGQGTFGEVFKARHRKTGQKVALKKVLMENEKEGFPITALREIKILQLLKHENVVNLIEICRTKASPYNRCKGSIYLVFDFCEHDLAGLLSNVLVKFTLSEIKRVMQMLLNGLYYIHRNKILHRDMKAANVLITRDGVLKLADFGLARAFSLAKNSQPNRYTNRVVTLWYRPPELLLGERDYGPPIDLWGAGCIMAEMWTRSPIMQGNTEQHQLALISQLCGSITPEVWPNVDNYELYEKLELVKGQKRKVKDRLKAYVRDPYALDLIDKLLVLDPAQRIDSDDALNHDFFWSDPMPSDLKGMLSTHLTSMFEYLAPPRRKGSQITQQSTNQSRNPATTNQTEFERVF
T1 sequence (O60563 whole entry partner): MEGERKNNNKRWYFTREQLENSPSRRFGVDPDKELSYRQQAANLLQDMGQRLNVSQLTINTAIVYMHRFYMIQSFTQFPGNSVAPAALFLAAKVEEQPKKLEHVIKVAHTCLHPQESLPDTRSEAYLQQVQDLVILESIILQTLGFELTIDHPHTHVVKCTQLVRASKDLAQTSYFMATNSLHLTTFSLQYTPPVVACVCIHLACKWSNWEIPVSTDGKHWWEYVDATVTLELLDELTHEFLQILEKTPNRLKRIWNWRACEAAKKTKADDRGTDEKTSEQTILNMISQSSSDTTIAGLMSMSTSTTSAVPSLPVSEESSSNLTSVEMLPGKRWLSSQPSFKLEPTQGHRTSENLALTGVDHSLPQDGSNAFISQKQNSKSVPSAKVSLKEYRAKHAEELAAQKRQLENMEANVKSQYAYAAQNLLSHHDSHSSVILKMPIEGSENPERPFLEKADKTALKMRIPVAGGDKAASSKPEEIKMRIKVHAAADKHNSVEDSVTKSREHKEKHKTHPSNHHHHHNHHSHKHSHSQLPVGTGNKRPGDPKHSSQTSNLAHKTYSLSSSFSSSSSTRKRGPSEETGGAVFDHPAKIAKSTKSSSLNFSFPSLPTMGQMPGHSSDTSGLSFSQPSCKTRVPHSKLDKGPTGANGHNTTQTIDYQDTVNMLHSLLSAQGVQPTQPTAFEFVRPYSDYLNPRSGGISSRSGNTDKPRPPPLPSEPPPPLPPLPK

Molecule `CCOc1cc(F)ccc1-c1ncnc(Nc2cccc(CS(C)(=O)=O)c2)n1` [Example 42, 4-(2-Ethoxy-4-fluorophenyl)-N-{3-[(methylsulfonyl)-methyl]phenyl}-1,3,5-triazin-2-amine] showed an IC50 on CDK9/CycT1 of 5 nM. As for `CS(=O)(=O)Cc1cccc(Nc2ncnc(-c3ccccc3OCc3cccc(Cl)c3)n2)c1` [Example 28, 4-{2-[(3-Chlorobenzyl)oxy]phenyl}-N-{3-[(methylsulfonyl)methyl]phenyl}-1,3,5-triazin-2-amine], the IC50 in assay [1] amounted to 320 nM; at CDK9/CycT1, 3 nM. For `CCCCOc1cc(F)ccc1-c1ncnc(Nc2cccc(CS(C)(=O)=O)c2)n1` [Example 44, 4-(2-Butoxy-4-fluorophenyl)-N-{3-[(methylsulfonyl)-methyl]phenyl}-1,3,5-triazin-2-amine] the same measures were 1000 nM and 9 nM. On to `CS(=O)(=O)Cc1cccc(Nc2ncnc(-c3ccc(F)cc3OCc3ccnc(Cl)c3)n2)c1` [Example 88, 4-{2-[(2-Chloropyridin-4-yl)methoxy]-4-fluorophenyl}-N-{3-[(methylsulfonyl)-methyl]phenyl}-1,3,5-triazin-2-amine], for which the IC50 on CDK9/CycT1 was 4 nM. Same read-out and setting: the result for `CS(=O)(=O)Cc1cccc(Nc2ncnc(-c3cc(F)ccc3OCc3cccc(F)c3)n2)c1` [Example 31, 4-{5-Fluoro-2-[(3-fluorobenzyl)oxy]phenyl}-N-{3-[(methylsulfonyl)methyl]phenyl}-1,3,5-triazin-2-amine] reads 4 nM. Regarding `CS(=O)(=O)Cc1cccc(Nc2ncnc(-c3ccc(F)cc3OCCCC(F)(F)F)n2)c1` [Example 59, 4-[4-Fluoro-2-(4,4,4-trifluorobutoxy)phenyl]-N-{3-[(methylsulfonyl)methyl]phenyl}-1,3,5-triazin-2-amine], the IC50 in assay [1] came out at 570 nM; against CDK9/CycT1, 5 nM. As to `COc1cc(F)ccc1-c1ncnc(Nc2cccc(CS(=O)(=O)C3CC3)c2)n1` [Example 40, N-{3-[(Cyclopropylsulfonyl)methyl]phenyl}-4-(4-fluoro-2-methoxyphenyl)-1,3,5-triazin-2-amine], the IC50 at CDK9/CycT1 turned out to be 14 nM.

Take `CS(=O)(=O)Cc1cccc(Nc2ncnc(-c3ccc(F)cc3OCc3cccc(Cl)c3)n2)c1` [Example 85, 4-{2-[(3-Chlorobenzyl)oxy]-4-fluorophenyl}-N-{3-[(methylsulfonyl)methyl]phenyl}-1,3,5-triazin-2-amine]: the IC50 in assay [1] amounted to 560 nM; at CDK9/CycT1 it was 7 nM. For `CS(=O)(=O)Cc1cccc(Nc2ncnc(-c3ccc(F)cc3OCc3ccccc3)n2)c1` [Example 4, 4-[2-(Benzyloxy)-4-fluorophenyl]-N-{3-[(methylsulfonyl)methyl]phenyl}-1,3,5-triazin-2-amine], at CDK9/CycT1, the IC50 was determined as 3 nM.

In the case of `COc1cc(F)c(F)cc1-c1ncnc(Nc2cccc(CS(C)(=O)=O)c2)n1` [Example 1, 4-(4,5-Difluoro-2-methoxyphenyl)-N-{3-[(methylsulfonyl)methyl]phenyl}-1,3,5-triazin-2-amine], on CDK9/CycT1, the IC50 turned out to be 14 nM. For `CS(=O)(=O)Cc1cccc(Nc2ncnc(-c3ccc(F)cc3OCc3ccc(C#N)cc3)n2)c1` [Example 90, 4-({5-Fluoro-2-[4-({3-[(methylsulfonyl)methyl]phenyl}amino)-1,3,5-triazin-2-yl]phenoxy}methyl)-benzonitrile], the results for the IC50 (in assay [1]; against CDK9/CycT1) were 310 nM and 3 nM, respectively. For `Cc1cc(COc2cc(F)ccc2-c2ncnc(Nc3cccc(CS(C)(=O)=O)c3)n2)ccn1` [Example 87, 4-{4-Fluoro-2-[(2-methylpyridin-4-yl)methoxy]-phenyl}-N-{3-[(methylsulfonyl)methyl]phenyl}-1,3,5-triazin-2-amine] the same measures were 730 nM and 6 nM. For `CS(=O)(=O)Cc1cccc(Nc2ncnc(-c3ccc(F)cc3OCc3ccncc3)n2)c1` [Example 89, 4-[4-Fluoro-2-(pyridin-4-ylmethoxy)phenyl]-N-{3-[(methylsulfonyl)methyl]phenyl}-1,3,5-triazin-2-amine] the same measures were 310 nM and 5 nM. For `CS(=O)(=O)Cc1cccc(Nc2ncnc(-c3ccc(F)cc3OCC3CC3)n2)c1` [Example 55, 4-[2-(Cyclopropylmethoxy)-4-fluorophenyl]-N-{3-[(methylsulfonyl)methyl]phenyl}-1,3,5-triazin-2-amine] the same measures were 400 nM and 15 nM. Turning to `COc1cc(F)ccc1-c1ncnc(Nc2cccc(CS(=O)(=O)C3CCCCC3)c2)n1` [Example 9, N-{3-[(Cyclohexylsulfonyl)methyl]phenyl}-4-(4-fluoro-2-methoxyphenyl)-1,3,5-triazin-2-amine], the IC50 in assay [1] came out at 580 nM; against CDK9/CycT1, 10 nM. The corresponding values for `CS(=O)(=O)Cc1cccc(Nc2ncnc(-c3ccc(Cl)cc3OC3CCCC3)n2)c1` [Example 29, 4-[4-Chloro-2-(cyclopentyloxy)phenyl]-N-{3-[(methylsulfonyl)methyl]phenyl}-1,3,5-triazin-2-amine] are 690 nM and 610 nM. Molecule `COc1cc(F)ccc1-c1ncnc(Nc2ccc(F)c(CS(C)(=O)=O)c2)n1` [Example 33, 4-(4-Fluoro-2-methoxyphenyl)-N-{4-fluoro-3-[(methylsulfonyl)methyl]phenyl}-1,3,5-triazin-2-amine] registered an IC50 on CDK9/CycT1 of 6 nM.

For the molecule `CS(=O)(=O)Cc1cccc(Nc2ncnc(-c3cccc4c3OCCO4)n2)c1` [Example 18, 4-(2,3-Dihydro-1,4-benzodioxin-5-yl)-N-{3-[(methylsulfonyl)methyl]phenyl}-1,3,5-triazin-2-amine], the IC50 in assay [1] amounted to 690 nM; on CDK9/CycT1, 8 nM. The corresponding values for `Cc1cccc(COc2cc(F)ccc2-c2ncnc(Nc3cccc(CS(C)(=O)=O)c3)n2)c1` [Example 83, 4-{4-Fluoro-2-[(3-methylbenzyl)oxy]phenyl}-N-{3-[(methylsulfonyl)-methyl]phenyl}-1,3,5-triazin-2-amine] are 740 nM and 5 nM. Take `COc1cc(F)ccc1-c1ncnc(Nc2cc(F)cc(CS(C)(=O)=O)c2)n1` [Example 10, 4-(4-Fluoro-2-methoxyphenyl)-N-{3-fluoro-5-[(methylsulfonyl)methyl]phenyl}-1,3,5-triazin-2-amine]: the IC50 against CDK9/CycT1 came out at 6 nM.

As for `CS(=O)(=O)Cc1cccc(Nc2ncnc(-c3cccc4c3OCCC4)n2)c1` [Example 12, 4-(3,4-Dihydro-2H-chromen-8-yl)-N-{3-[(methylsulfonyl)methyl]phenyl}-1,3,5-triazin-2-amine], the IC50 in assay [1] is 390 nM; against CDK9/CycT1, 7 nM. Regarding `COc1cc(F)ccc1-c1ncnc(Nc2cccc(CS(C)(=O)=O)c2)n1` [Example 3, 4-(4-Fluoro-2-methoxyphenyl)-N-{3-[(methylsulfonyl)methyl]phenyl}-1,3,5-triazin-2-amine], on CDK9/CycT1, the IC50 came to 24 nM.

For the molecule `CS(=O)(=O)Cc1cccc(Nc2ncnc(-c3ccc(F)cc3OCCF)n2)c1` [Example 61, 4-[4-Fluoro-2-(2-fluoroethoxy)phenyl]-N-{3-[(methylsulfonyl)methyl]phenyl}-1,3,5-triazin-2-amine], the IC50 in assay [1] worked out at 1100 nM; at CDK9/CycT1 it was 8 nM. The molecule `CC#CCOc1cc(F)ccc1-c1ncnc(Nc2cccc(CS(C)(=O)=O)c2)n1` [Example 62, 4-[2-(But-2-yn-1-yloxy)-4-fluorophenyl]-N-{3-[(methylsulfonyl)methyl]phenyl}-1,3,5-triazin-2-amine] registered an IC50 at CDK9/CycT1 of 3 nM.
